Measured values reported in patent US6472391B2, “Nitrogen-containing heterocyclic compounds” (Millennium Pharmaceuticals, Inc., priority 1996, dated 2002).

SMILES | melting point [°C]
COc1cc2ncnc(N3CCN(C(=S)Nc4cccc(C#N)c4)CC3)c2cc1OC [Compound 238, N-(3-Cyanophenyl)-4-(6,7-dimethoxy-4-quinazolinyl)-1-piperazinethiocarboxamide] | 169 to 170
COc1cc2ncnc(N3CCN(C(=S)Nc4ccc5c(O)nnc(O)c5c4)CC3)c2cc1OC [Compound 99, N-(1,4-Dihydroxy-6-phthalazinyl)-4-(6,7-dimethoxy-4-quinazolinyl)-1-piperazinethiocarboxamide] | 153 to 155
Fc1cc2ncnc(N3CCN(C(=S)NCc4ccccc4)CC3)c2cc1F [Compound 330, N-Benzyl-4-(6,7-difluoro-4-quinazolinyl)-1-piperazinethiocarboxamide] | 119 to 120
COc1ccc(NC(=S)N2CCN(c3ncnc4cc(OC)c(OC)cc34)CC2)cc1 [Compound 196, 4-(6,7-Dimethoxy-4-quinazolinyl)-N-(4-methoxyphenyl)-1-piperazinethiocarboxamide] | 196 to 197
COc1cc2ncnc(N3CCN(C(=O)Nc4cccc(C)c4)CC3)c2cc1OC [Compound 144, 4-(6,7-Dimethoxy-4-quinazolinyl)-N-(3-tolyl)-1-piperazinecarboxamide] | 218 to 219
CCOc1cc2c(N3CCN(C(=S)NCc4cccnc4)CC3)ncnc2cc1OC [Compound 349, 4-(6-Ethoxy-7-methoxy-4-quinazolinyl)-N-(3-picolyl)-1-piperazinethiocarboxamide] | 208 to 209
COc1ccc(OC)c(NC(=O)N2CCN(c3ncnc4cc(OC)c(OC)cc34)CC2)c1 [Compound 65, N-(2,5-Dimethoxyphenyl)-4-(6,7-Dimethoxy-4-quinazolinyl)-1-piperazinecarboxamide] | 215 to 217
CCOC(=O)c1cnc2cc(OC)c(OC)cc2c1N1CCN(C(=S)NCc2ccccc2)CC1 [Compound 409, N-Benzyl-4-(6,7-dimethoxy-3-ethoxycarbonyl-4-quinolyl)-1-piperazinethiocarboxamide] | 174 to 175
COc1cc2ncnc(N3CCN(C(=O)Nc4ccc(OC(C)=O)cc4)CC3)c2cc1OC [Compound 216, N-(4-Acetoxyphenyl)-4-(6,7-dimethoxy-4-quinazolinyl)-1-piperazinecarboxamide] | 197 to 199
COc1cc2ncnc(N3CCN(C(=S)NCc4ccc(C(F)(F)F)cc4)CC3)c2cc1OC [Compound 161, 4-(6,7-Dimethoxy-4-quinazolinyl)-N-(4-trifluoromethylbenzyl)-1-piperazinethiocarboxamide] | 216 to 217
COc1cc2ncnc(N3CCN(C(=O)Nc4cccc(C(C)C)c4)CC3)c2cc1OC [Compound 150, 4-(6,7-Dimethoxy-4-quinazolinyl)-N-(3-isopropylphenyl)-1-piperazinecarboxamide] | 196 to 197
COc1ccc2ncnc(N3CCN(C(=O)Nc4ccc(Oc5ccccc5)cc4)CC3)c2c1 [Compound 307, 4-(6-Methoxy-4-quinazolinyl)-N-(4-phenoxyphenyl)-1-piperazinecarboxamide] | 139 to 140
COc1cc2ncnc(N3CCN(C(=O)Nc4ccc(SC)cc4)CC3)c2cc1OC [Compound 69, 4-(6,7-dimethoxy-4-quinazolinyl)-N-(4-methylthiophenyl)-1-piperazinecarboxamide] | 231 to 233
O=C(Nc1ccc(Oc2ccccc2)cc1)N1CCN(c2ncnc3c(I)cc(I)cc23)CC1 [Compound 380, 4-(6,8-Diiodo-4-quinazolinyl)-N-(4-phenoxyphenyl)-1-piperazinecarboxamide] | 242 to 244
CCOc1cc2c(N3CCN(C(=O)Nc4ccc(Oc5ccccc5)cc4)CC3)ncnc2cc1OC [Compound 346, 4-(6-Ethoxy-7-methoxy-4-quinazolinyl)-N-(4-phenoxyphenyl)-1-piperazinecarboxamide] | 213 to 214

Continued, values first:

melting point [°C] | SMILES
170 to 171 | CCOc1cc2c(N3CCN(C(=S)NCc4ccccc4)CC3)ncnc2cc1OC [Compound 348, N-Benzyl-4-(6-ethoxy-7-methoxy-4-quinazolinyl)-1-piperazinethiocarboxamide]
238 to 240 | COc1cc2ncnc(N3CCN(C(=O)Nc4ccc(Cl)nc4)CC3)c2cc1OC [Compound 272, N-(2-Chloro-5-pyridyl)-4-(6,7-dimethoxy-4-quinazolinyl)-1-piperazinecarboxamide]
187 to 188 | COc1ccc(NC(=O)N2CCN(c3ncnc4cc(OC)c(OC)cc34)CC2)c(OC)c1 [Compound 64, N-(2,4-Dimethoxyphenyl)-4-(6,7-dimethoxy-4-quinazolinyl)-1-piperazinecarboxamide]
141 to 143 | COc1cc2ncnc(N3CCN(C(=O)Nc4ccncc4)CC3)c2cc1OC [Compound 267, 4-(6,7-Dimethoxy-4-quinazolinyl)-N-(4-pyridyl)-1-piperazinecarboxamide]
187 to 189 | COc1cc2ncnc(N3CCN(C(=O)Nc4cc(F)ccc4F)CC3)c2cc1OC [Compound 51, N-(2,5-Difluorophenyl)-4-(6,7-dimethoxy-4-quinazolinyl)-1-piperazinecarboxamide]
177 to 183 | COc1cc2ncnc(N3CCCN(C(=S)NCc4cccnc4)CC3)c2cc1OC.Cl.Cl
207 to 211 | COc1cc2ncnc(N3CCN(C(=S)Nc4ccc5c(c4)OCO5)CC3)c2cc1OC [Compound 68, 4-(6,7-Dimethoxy-4-quinazolinyl)-N-(3,4-methylenedioxyphenyl)-1-piperazinethiocarboxamide]
242 to 243 | COc1cc2ncnc(N3CCN(C(=S)Nc4ccc(Oc5ccccc5)cc4)CC3)c2cc1OC [Compound 61, 4-(6,7-Dimethoxy-4-quinazolinyl)-N-(4-phenoxyphenyl)-1-piperazinethiocarboxamide]
252 to 253 | COC(=O)c1cc(NC(=O)N2CCN(c3ncnc4cc(OC)c(OC)cc34)CC2)cc(C(=O)OC)c1 [Compound 91, N-[3,5-Bis(methoxycarbonyl)phenyl]-4-(6,7-dimethoxy-4-quinazolinyl)-1-piperazinecarboxamide]
184 to 185 | COc1cc2ncnc(N3CCN(C(=O)NCCc4cccs4)CC3)c2cc1OC [Compound 96, 4-(6,7-Dimethoxy-4-quinazolinyl)-N-[2-(2-thienyl)ethyl]-1-piperazinecarboxamide]
188 to 189 | O=C(Nc1ccc(Oc2ccccc2)cc1)N1CCN(c2ccnc3ccc(Cl)cc23)CC1 [Compound 399, 4-(6-Chloro-4-quinolyl)-N-(4-phenoxyphenyl)-1-piperazinecarboxamide]
128 to 131 | COc1cc2ncnc(N3CCN(C(=S)Nc4ccc(SC(F)(F)F)cc4)CC3)c2cc1OC [Compound 220, 4-(6,7-Dimethoxy-4-quinazolinyl)-N-(4-trifluoromethylthiophenyl)-1-piperazinethiocarboxamide]
191 to 192 | COc1cc2ncnc(N3CCN(C(=O)N[C@@H](C)c4ccccc4)CC3)c2cc1OC [Compound 127, (S)-4-(6,7-Dimethoxy-4-quinazolinyl)-N-(1-phenylethyl)-1-piperazinecarboxamide]
155 to 158 | O=C(Nc1ccc([N+](=O)[O-])cc1)N1CCN(c2ncnc3ccccc23)CC1 [Compound 103, N-(4-Nitrophenyl)-4-(4-quinazolinyl)-1-piperazinecarboxamide]
